Test results taken from publication PMC6295334 (ACS chemical biology, 2017).
Read-outs that look alike come from different tables or passages of the source.

What was measured:
Alg44 [1] = target: T1, Alg44 (Pseudomonas aeruginosa, UniProt Q9HY69); experiment: intact protein LC-MS adduct; format: binding
Alg44 [2] = target: T1, Alg44; experiment: intact protein LC-MS adduct; format: binding; remark: listed apart in the source

T1 sequence (Q9HY69 14-122): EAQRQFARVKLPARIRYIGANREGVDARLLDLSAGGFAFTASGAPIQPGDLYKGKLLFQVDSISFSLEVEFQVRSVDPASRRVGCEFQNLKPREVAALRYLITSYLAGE

CCC1(C)Cc2ccccc2-c2nc3[nH][nH]c(=S)n3c(=O)c21 (centres unmarked) [compound 925]
IC50 (Alg44 [1]): 58.1 ± 1.2 µM

AC1LFHI9
IC50 (Alg44 [2]): 63.5 ± 1.3 µM
